Data: article PMC7935272 (PLoS Pathogens, 2021)
“Also recorded” adds a separate entry of the source.

Columns and labels:
MeV L1708 = MeV L1708 (Measles virus, UniProt Q9WMB3); assay: Biolayer interferometry, MeV L1708 WT; assay type: binding; conditions: for BLI sensorgram signal: time r4=0 s, r5=0.2 s, r6=0.4 s, r7=0.6 s; for S5 E BLI response versus compound conc. / S5 F BLI response versus compound conc.: L1708 wt; for S5 B BLI sensorgram response / S5 C BLI sensorgram response: MeV L1708 WT; for steady-state BLI sensor response: S7 B
Chain of MeV L1708 (Q9WMB3 1-1708): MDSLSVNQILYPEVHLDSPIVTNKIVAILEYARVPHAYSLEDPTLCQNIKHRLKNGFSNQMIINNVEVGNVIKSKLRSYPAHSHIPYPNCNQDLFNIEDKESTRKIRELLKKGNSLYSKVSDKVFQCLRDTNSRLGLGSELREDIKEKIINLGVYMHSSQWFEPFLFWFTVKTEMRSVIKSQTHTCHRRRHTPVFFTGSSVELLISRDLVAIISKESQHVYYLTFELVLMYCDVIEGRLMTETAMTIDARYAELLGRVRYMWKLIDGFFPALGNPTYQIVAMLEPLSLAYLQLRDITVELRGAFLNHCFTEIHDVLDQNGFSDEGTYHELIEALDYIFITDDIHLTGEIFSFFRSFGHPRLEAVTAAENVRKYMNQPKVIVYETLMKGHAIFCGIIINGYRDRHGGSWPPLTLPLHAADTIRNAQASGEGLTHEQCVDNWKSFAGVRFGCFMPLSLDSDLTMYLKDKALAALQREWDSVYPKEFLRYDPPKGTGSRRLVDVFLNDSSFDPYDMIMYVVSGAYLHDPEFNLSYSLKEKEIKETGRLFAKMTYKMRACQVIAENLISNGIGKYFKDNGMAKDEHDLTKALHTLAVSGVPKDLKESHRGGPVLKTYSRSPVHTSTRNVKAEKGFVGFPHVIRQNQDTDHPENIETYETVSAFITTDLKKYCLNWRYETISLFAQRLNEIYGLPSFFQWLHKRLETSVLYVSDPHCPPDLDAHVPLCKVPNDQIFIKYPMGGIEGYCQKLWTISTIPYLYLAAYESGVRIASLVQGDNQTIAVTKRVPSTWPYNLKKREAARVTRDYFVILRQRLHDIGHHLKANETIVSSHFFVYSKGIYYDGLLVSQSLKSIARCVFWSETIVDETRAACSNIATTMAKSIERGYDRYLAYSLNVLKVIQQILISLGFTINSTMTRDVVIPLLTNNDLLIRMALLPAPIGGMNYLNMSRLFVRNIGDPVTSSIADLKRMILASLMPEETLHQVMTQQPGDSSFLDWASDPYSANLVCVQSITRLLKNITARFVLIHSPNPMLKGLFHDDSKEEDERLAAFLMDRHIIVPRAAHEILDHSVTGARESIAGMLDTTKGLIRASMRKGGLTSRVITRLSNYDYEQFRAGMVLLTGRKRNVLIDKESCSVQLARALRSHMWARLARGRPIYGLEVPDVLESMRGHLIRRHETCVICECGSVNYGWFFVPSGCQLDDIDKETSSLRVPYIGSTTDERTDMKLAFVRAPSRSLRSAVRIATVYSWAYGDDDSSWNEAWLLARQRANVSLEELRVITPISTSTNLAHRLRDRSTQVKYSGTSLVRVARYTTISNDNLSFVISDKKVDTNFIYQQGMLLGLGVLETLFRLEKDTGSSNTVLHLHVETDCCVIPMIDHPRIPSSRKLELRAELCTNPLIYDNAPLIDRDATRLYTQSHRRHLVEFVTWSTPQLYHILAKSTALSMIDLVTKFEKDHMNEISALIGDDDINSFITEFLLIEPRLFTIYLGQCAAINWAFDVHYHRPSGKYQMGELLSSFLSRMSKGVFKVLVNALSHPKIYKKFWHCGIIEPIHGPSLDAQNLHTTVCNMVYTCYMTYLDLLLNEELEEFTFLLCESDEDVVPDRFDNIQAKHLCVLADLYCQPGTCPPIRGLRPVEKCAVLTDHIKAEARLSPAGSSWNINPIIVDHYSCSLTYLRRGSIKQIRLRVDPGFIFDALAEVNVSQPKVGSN
Chain of MeV L1708 (Q9WMB4 whole entry partner): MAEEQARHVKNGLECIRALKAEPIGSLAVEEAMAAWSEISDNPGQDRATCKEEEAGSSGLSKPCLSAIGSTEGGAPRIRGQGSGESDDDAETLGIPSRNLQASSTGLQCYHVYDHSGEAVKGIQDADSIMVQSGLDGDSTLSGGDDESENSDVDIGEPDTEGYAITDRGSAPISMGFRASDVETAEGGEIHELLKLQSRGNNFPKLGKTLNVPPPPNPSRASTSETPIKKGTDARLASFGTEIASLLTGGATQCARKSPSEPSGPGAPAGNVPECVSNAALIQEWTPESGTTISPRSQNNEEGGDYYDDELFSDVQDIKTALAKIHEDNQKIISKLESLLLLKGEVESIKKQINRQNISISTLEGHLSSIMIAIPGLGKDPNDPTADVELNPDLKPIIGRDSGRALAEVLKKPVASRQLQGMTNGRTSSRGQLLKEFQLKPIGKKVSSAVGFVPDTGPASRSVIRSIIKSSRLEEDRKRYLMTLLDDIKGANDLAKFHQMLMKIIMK

[1] = system: MeV mRNA transcripts (P, H, L); assay: qRT-PCR of MeV primary transcription in infected Vero-hSLAM cells; assay type: cell-based; conditions: for Transcription gradient, H mRNA, Predicted (LS) mean 2 / Transcription gradient, L mRNA, Predicted (LS) mean 2 / Transcription gradient, P mRNA, Predicted (LS) mean 2: Figure 3I, N2 3
Experimental: Total RNA was extracted four hours after infection using Trizol and subjected to reverse transcription using either oligo-dT primers. Subsequent qPCR used primer pairs specific for MeV P mRNA, MeV H mRNA, MeV L mRNA, or human GAPDH mRNA, respectively. qPCR was performed using an Applied Biosystems 7500 Real-Time PCR System with a StepOnePlus Real-Time PCR System. Samples were normalized for GAPDH.

MeV P-L complexes = MeV P-L complexes (Measles virus, UniProt Q9WMB3); assay: In vitro RdRP assay on 25-nt RSV promoter template (de novo initiation and back-priming); conditions: 25-mer RSV promoter template
Chain of MeV P-L complexes (Q9WMB4 whole entry): as the sequence (Q9WMB4 whole entry partner) above
Chain of MeV P-L complexes (Q9WMB3 whole entry): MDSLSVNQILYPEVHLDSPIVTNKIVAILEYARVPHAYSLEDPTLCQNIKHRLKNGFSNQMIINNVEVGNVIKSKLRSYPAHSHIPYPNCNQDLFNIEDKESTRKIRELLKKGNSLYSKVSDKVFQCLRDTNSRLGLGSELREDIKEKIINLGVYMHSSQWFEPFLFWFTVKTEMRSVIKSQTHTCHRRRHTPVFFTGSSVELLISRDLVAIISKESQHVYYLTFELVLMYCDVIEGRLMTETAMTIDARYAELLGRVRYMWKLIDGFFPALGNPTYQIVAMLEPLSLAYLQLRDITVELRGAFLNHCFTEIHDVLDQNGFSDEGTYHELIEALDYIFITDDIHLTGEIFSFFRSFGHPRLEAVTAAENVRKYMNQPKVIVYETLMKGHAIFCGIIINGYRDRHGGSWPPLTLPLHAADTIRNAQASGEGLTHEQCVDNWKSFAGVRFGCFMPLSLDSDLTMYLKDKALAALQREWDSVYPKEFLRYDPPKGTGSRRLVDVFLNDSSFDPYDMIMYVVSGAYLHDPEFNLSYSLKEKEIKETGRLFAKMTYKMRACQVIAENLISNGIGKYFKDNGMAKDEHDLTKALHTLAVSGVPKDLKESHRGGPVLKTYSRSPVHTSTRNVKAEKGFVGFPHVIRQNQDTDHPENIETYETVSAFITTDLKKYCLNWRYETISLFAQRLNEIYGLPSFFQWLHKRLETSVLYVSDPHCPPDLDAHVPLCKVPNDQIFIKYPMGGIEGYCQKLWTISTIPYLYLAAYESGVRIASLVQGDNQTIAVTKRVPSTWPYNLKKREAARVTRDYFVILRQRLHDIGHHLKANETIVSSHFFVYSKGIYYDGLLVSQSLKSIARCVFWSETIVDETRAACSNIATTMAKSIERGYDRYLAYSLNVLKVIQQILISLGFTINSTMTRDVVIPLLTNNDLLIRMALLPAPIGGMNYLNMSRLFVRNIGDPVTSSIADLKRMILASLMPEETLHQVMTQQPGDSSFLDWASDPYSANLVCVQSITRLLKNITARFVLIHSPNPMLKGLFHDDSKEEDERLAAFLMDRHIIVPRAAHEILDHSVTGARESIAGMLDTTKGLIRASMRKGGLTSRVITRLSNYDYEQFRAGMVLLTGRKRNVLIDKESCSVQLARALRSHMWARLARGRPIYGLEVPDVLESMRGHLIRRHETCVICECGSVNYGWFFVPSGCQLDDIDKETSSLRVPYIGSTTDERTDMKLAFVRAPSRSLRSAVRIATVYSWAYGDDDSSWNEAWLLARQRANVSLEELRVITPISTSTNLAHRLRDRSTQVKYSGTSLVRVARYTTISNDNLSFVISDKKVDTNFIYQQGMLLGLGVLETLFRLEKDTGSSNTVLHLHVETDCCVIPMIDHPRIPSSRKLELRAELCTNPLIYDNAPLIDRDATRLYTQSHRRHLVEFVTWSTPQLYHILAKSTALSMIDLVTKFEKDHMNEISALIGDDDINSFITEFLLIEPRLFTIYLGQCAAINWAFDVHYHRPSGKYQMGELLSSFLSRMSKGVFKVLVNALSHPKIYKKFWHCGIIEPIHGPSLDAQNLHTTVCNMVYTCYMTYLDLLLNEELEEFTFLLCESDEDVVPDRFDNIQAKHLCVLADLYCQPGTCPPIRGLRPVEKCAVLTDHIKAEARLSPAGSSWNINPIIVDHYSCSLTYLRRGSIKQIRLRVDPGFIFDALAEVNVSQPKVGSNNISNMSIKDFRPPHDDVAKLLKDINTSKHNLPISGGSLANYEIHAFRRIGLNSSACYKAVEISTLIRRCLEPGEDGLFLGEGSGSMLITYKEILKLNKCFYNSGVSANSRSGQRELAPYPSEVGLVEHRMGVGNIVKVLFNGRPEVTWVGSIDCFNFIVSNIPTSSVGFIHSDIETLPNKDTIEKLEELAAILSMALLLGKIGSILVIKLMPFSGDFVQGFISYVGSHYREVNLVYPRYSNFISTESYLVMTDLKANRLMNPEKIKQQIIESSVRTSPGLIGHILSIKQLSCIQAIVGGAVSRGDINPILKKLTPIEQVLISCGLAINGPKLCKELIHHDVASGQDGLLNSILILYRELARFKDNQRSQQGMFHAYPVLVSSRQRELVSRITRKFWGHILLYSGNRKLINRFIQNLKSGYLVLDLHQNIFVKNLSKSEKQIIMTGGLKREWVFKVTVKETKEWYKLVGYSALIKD

[2] = cited from earlier work

Compound: Cn1nc(C(F)(F)F)cc1C(=O)Nc1ccc(S(=O)(=O)N2CCCC[C@H]2CCN2CCOCC2)cc1 [ERDRP-0519, S(=O)(=O)(N1[C@H](CCN2CCOCC2)CCCC1)c1ccc(NC(=O)c2n(C)nc(C(F)(F)F)c2)cc1]
- BLI sensorgram signal (MeV L1708; 0.027 µM, 0 s after start): 0.003933
- BLI sensorgram signal (MeV L1708; 0.027 µM, 0.2 s after start): 0.003451
- BLI sensorgram signal (MeV L1708; 0.027 µM, 0.4 s after start): 0.003441
- BLI sensorgram signal (MeV L1708; 0.027 µM, 0.6 s after start): 0.002991
- BLI sensorgram signal (MeV L1708; 0.08 µM, 0 s after start): 0.004633
- BLI sensorgram signal (MeV L1708; 0.08 µM, 0.2 s after start): 0.004988
- BLI sensorgram signal (MeV L1708; 0.08 µM, 0.4 s after start): 0.005321
- BLI sensorgram signal (MeV L1708; 0.08 µM, 0.6 s after start): 0.005054
- BLI sensorgram signal (MeV L1708; 0.74 µM, 0 s after start): 0.0125
- BLI sensorgram signal (MeV L1708; 0.74 µM, 0.2 s after start): 0.01183
- BLI sensorgram signal (MeV L1708; 0.74 µM, 0.4 s after start): 0.01188
- BLI sensorgram signal (MeV L1708; 0.74 µM, 0.6 s after start): 0.0114
- BLI sensorgram signal (MeV L1708; 2.22 µM, 0 s after start): 0.01275
- BLI sensorgram signal (MeV L1708; 2.22 µM, 0.2 s after start): 0.01261
- BLI sensorgram signal (MeV L1708; 2.22 µM, 0.4 s after start): 0.01211
- BLI sensorgram signal (MeV L1708; 2.22 µM, 0.6 s after start): 0.01142
- BLI sensorgram signal (MeV L1708; 6.67 µM, 0 s after start): 0.009323
- BLI sensorgram signal (MeV L1708; 6.67 µM, 0.2 s after start): 0.01006
- BLI sensorgram signal (MeV L1708; 6.67 µM, 0.4 s after start): 0.01027
- BLI sensorgram signal (MeV L1708; 6.67 µM, 0.6 s after start): 0.01076
- S5 E BLI response versus compound conc. (MeV L1708; compound conc. 0.1 uM): 0.01921
- S5 F BLI response versus compound conc. (MeV L1708; compound conc. 0.1 uM): 0.02408
- S5 E BLI response versus compound conc. (MeV L1708; compound conc. 0.25 uM): 0.02429
- S5 F BLI response versus compound conc. (MeV L1708; compound conc. 0.25 uM): 0.0326
- S5 E BLI response versus compound conc. (MeV L1708; compound conc. 1 uM): 0.03022
- S5 F BLI response versus compound conc. (MeV L1708; compound conc. 1 uM): 0.03823
- S5 E BLI response versus compound conc. (MeV L1708; compound conc. 5 uM): 0.0316
- S5 F BLI response versus compound conc. (MeV L1708; compound conc. 5 uM): 0.04742
- S5 B BLI sensorgram response (MeV L1708; 100 nM, time 0 s): -0.001906
- S5 C BLI sensorgram response (MeV L1708; 100 nM, time 0 s): 0.005581
- S5 B BLI sensorgram response (MeV L1708; 100 nM, time 0.2 s): -0.001896
- S5 C BLI sensorgram response (MeV L1708; 100 nM, time 0.2 s): 0.006504
- S5 B BLI sensorgram response (MeV L1708; 100 nM, time 0.4 s): -0.001894
- S5 C BLI sensorgram response (MeV L1708; 100 nM, time 0.4 s): 0.007379
- S5 B BLI sensorgram response (MeV L1708; 100 nM, time 0.6 s): -0.001966
- S5 C BLI sensorgram response (MeV L1708; 100 nM, time 0.6 s): 0.008161
- S5 B BLI sensorgram response (MeV L1708; 250 nM, time 0 s): -0.005003
- S5 C BLI sensorgram response (MeV L1708; 250 nM, time 0 s): -0.0006808
- S5 B BLI sensorgram response (MeV L1708; 250 nM, time 0.2 s): -0.005217
- S5 C BLI sensorgram response (MeV L1708; 250 nM, time 0.2 s): -0.0001528
- S5 B BLI sensorgram response (MeV L1708; 250 nM, time 0.4 s): -0.005452
- S5 C BLI sensorgram response (MeV L1708; 250 nM, time 0.4 s): 0.0001322
- S5 B BLI sensorgram response (MeV L1708; 250 nM, time 0.6 s): -0.004917
- S5 C BLI sensorgram response (MeV L1708; 250 nM, time 0.6 s): 0.0008364
- S5 B BLI sensorgram response (MeV L1708; 1 µM, time 0 s): -0.01251
- S5 C BLI sensorgram response (MeV L1708; 1 µM, time 0 s): -0.001989
- S5 B BLI sensorgram response (MeV L1708; 1 µM, time 0.2 s): -0.01197
- S5 C BLI sensorgram response (MeV L1708; 1 µM, time 0.2 s): -0.00137
- S5 B BLI sensorgram response (MeV L1708; 1 µM, time 0.4 s): -0.01055
- S5 C BLI sensorgram response (MeV L1708; 1 µM, time 0.4 s): -0.0005476
- S5 B BLI sensorgram response (MeV L1708; 1 µM, time 0.6 s): -0.009819
- S5 B BLI sensorgram response (MeV L1708; 5 µM, time 0 s): -0.006751
- S5 B BLI sensorgram response (MeV L1708; 5 µM, time 0.2 s): -0.006914
- S5 C BLI sensorgram response (MeV L1708; 5 µM, time 0.2 s): 0.003468
- S5 B BLI sensorgram response (MeV L1708; 5 µM, time 0.4 s): -0.007277
- S5 C BLI sensorgram response (MeV L1708; 5 µM, time 0.4 s): 0.003613
- S5 B BLI sensorgram response (MeV L1708; 5 µM, time 0.6 s): -0.007135
- S5 C BLI sensorgram response (MeV L1708; 5 µM, time 0.6 s): 0.003495
- S5 B BLI sensorgram response (MeV L1708; 10 µM, time 0 s): -0.00589
- S5 C BLI sensorgram response (MeV L1708; 10 µM, time 0 s): -0.0007761
- S5 B BLI sensorgram response (MeV L1708; 10 µM, time 0.2 s): -0.006049
- S5 C BLI sensorgram response (MeV L1708; 10 µM, time 0.2 s): -0.00071
- S5 B BLI sensorgram response (MeV L1708; 10 µM, time 0.4 s): -0.006539
- S5 C BLI sensorgram response (MeV L1708; 10 µM, time 0.4 s): -0.000595
- S5 B BLI sensorgram response (MeV L1708; 10 µM, time 0.6 s): -0.006943
- S5 C BLI sensorgram response (MeV L1708; 10 µM, time 0.6 s): -0.0003228
- S5 B BLI sensorgram response (MeV L1708; 50 µM, time 0 s): -0.01268
- S5 C BLI sensorgram response (MeV L1708; 50 µM, time 0 s): 0.001755
- S5 B BLI sensorgram response (MeV L1708; 50 µM, time 0.2 s): -0.01168
- S5 C BLI sensorgram response (MeV L1708; 50 µM, time 0.2 s): 0.001652
- S5 B BLI sensorgram response (MeV L1708; 50 µM, time 0.4 s): -0.01101
- S5 C BLI sensorgram response (MeV L1708; 50 µM, time 0.4 s): 0.001542
- S5 B BLI sensorgram response (MeV L1708; 50 µM, time 0.6 s): -0.01006
- S5 C BLI sensorgram response (MeV L1708; 50 µM, time 0.6 s): 0.001922
- steady-state BLI sensor response (MeV L1708; 0.003 uM): 0.007597
- steady-state BLI sensor response (MeV L1708; 0.027 uM): 0.01138
- steady-state BLI sensor response (MeV L1708; 0.08 uM): 0.01081
- steady-state BLI sensor response (MeV L1708; 0.74 uM): 0.01443
- steady-state BLI sensor response (MeV L1708; 2.22 uM): 0.01474
- steady-state BLI sensor response (MeV L1708; 6.67 uM): 0.01921
- MeV P mRNA levels ([1]; 0.2 μM or 0.8 μM, 4 hours after infection, recMeV-Anc MOI 3): significantly decreased; also recorded: dose-dependently reduced
- Transcription gradient, H mRNA, Predicted (LS) mean 2 ([1]; 0.2 µM): 0.1422
- Transcription gradient, L mRNA, Predicted (LS) mean 2 ([1]; 0.2 µM): 0.005639
- Transcription gradient, P mRNA, Predicted (LS) mean 2 ([1]; 0.2 µM): 1.063
- Transcription gradient, H mRNA, Predicted (LS) mean 2 ([1]; 0.8 µM): 0.1249
- Transcription gradient, L mRNA, Predicted (LS) mean 2 ([1]; 0.8 µM): 0.007941
- Transcription gradient, P mRNA, Predicted (LS) mean 2 ([1]; 0.8 µM): 1.011
- 3'-elongation after backpriming (MeV P-L complexes): equivalently dose-dependently blocked
- CC50 [2]: 75 µM
